From patent publication US20260132165A1, “MODIFIED NUCLEOSIDE ANALOGUE AND USE THEREOF, AND NUCLEOSIDE ANALOGUE-CONTAINING DOUBLE-STRANDED OLIGONUCLEOTIDE AND USE THEREOF” (RIGERNA THERAPEUTICS (BEIJING) CO., LTD., priority 2023, published 2026)
Strand notation (5' to 3'): a small letter for the sugar, then the base; units joined by * are phosphorothioate-linked, units joined directly phosphodiester-linked; [ ] holds rarer units or linkages, { } end groups; capitals alone tell only the bases. [Uhd] = commercial nucleoside analogue vector Uhd (Shanghai Hongene), the reference conjugate, placed in the sense strand; [NM031] = nucleoside analogue NM031 of the disclosure, C16 lipid conjugate (uridine-based); {VP} = vinylphosphonate on the antisense 5' end; e = 2'-O-(2-methoxyethyl) (MOE); m = 2'-O-methyl; f = 2'-fluoro

How the values were obtained:
target gene SOD1 [1] = assay: Test Example 4: lipid conjugated siRNA sequences with different carbon chain lengths, SOD1 in mouse brain, lateral ventricle administration; assay type: in vivo, C57BL/6j mice; design: Right hemisphere Mean value of inhibition rate / Left hemisphere Mean value of inhibition rate: unit not given here; conditions: D5; for Left hemisphere Mean value of inhibition rate: left hemisphere (non-administration side); for Left hemisphere Mean value of inhibition rate / Right hemisphere Mean value of inhibition rate: lateral ventricle; for Right hemisphere Mean value of inhibition rate: right hemisphere (administration side)
Description: 6-8 Week-old C57BL/6j mice were randomly grouped by body weight. Mice in each group were administered with siRNA by lateral ventricle administration, with an administration dose per mouse depending on a specific test. Taking Bregma in mouse brain as point 0 (origin), coordinates of right ventricle were found using the cerebral stereotaxic apparatus and position was marked on surface of skull (position of lateral ventricle was AP (anteroposterior, bregma anterior and posterior): −0.58 mm, ML (mediolateral, left and right of middle raphe): −1.2 mm, DV (dorsoventral, up and down cerebral dura mater plane): −2.2 mm). A dental electric drill was used to drill in the skull above a position of interest, and then medicament was injected into the lateral ventricle by a micro-dosing pump, wherein a total injection volume was 5 μL, and injection duration was 10 min. Needle was retained for 5 min after completion of injection, and then slowly withdrawn. Afterwards, needle hole was sealed with biomedical glue, and then head skin was adhered. After animals woke up, the animals were returned back to animal house and further fed. PBS control group was administered with the same volume of siRNA-free PBS solution. The day of administration was recorded as 0 day (D0), and the mice were sacrificed at observation point after the administration. Different parts of brain region were respectively taken and stored in the RNAlater.
(§1) RNA extraction: the above tissue samples were taken out from the RNAlater, and smashed for 60 s in Tissuelyser type II full-automatic tissue homogenizer, and total RNAs of various tissue samples were extracted using the full-automatic nucleic acid extraction instrument and the nucleic acid extraction kit from Zhejiang Hanwei Science and Technology Co. Ltd. according to methods described in instructions.
(§2) Reverse transcription reaction: 1 μg of the extracted total RNAs of the tissue samples were taken, and configured into 20 μL of reverse transcription system according to a method described in kit instructions by using a reverse transcription kit (Reverse Transcription System, A3500) from Promega Corporation and selecting Oligo (dT)15 reverse transcription primers, and the reverse transcription reaction was completed. After the reaction was ended, 80 μL of RNase-Free water was added into the reverse transcription system to provide cDNA solution for Real-time PCR detection.
(§3) Real-time PCR detection: 20 μL of Real-time PCR reaction system per PCR detection well was configured according to a method described in kit instructions using SYBR™ Select Master Mix (Catalog number: 4472908) reagent from ABI company. Each detection system contained 5 μL of cDNA template obtained from the above reverse transcription reaction, 10 μL of SYBR™ Select Master Mix, 0.5 μL of 10 μM upstream primers, 0.5 μL of 10 μM downstream primers, and 4 μL of RNase-Free H2O. The configured reaction system was subjected to Real-time PCR amplification on ABI StepOnePlus PCR instrument by a three-step method, wherein an amplification procedure was pre-denaturation at 95° C. for 10 min, then denaturation at 95° C. for 30 s, annealing at 60° C. for 30 s, and extension at 72° C. for 30 s; and processes of denaturation, annealing, and extension were repeated for 40 cycles. Gene expression differences were calculated by the ΔΔCt method after completion of the procedure.
In the real-time fluorescence quantitative PCR method, relative quantitative calculation of remaining expression level and inhibition rate of gene mRNA of interest in various test groups was performed by the ΔΔCt method, and the calculation method is as follows: […]

target gene SOD1 [2] = assay: Test Example 12: inhibitory activity of lipid conjugated siRNA sequence on SOD1 in mouse eyes (intravitreal administration); assay type: in vivo, C57BL/6J mice; conditions: intravitreal, right eye, 7.5 μg per mouse, D14
Description: as §1, §2, §3
(§4) In the real-time fluorescence quantitative PCR method, relative quantitative calculation of remaining expression level and inhibition rate of gene mRNA of interest in various test groups was performed by the ΔΔCt method, and the calculation method is as follows:
The present test example evaluated, by an evaluation method for inhibitory activity on a target gene in mice, the inhibitory activity of siRNA sequence RZ899091 with the sense strand with the NM074 conjugation at Position 4 and siRNA reference sequence RX899121 without vector conjugation on the target gene SOD1 of interest in mice.
6-8 Week-old C57BL/6J mice were randomly grouped by body weight, 5 in each group and 3 groups in total. Mice in each group were administered with the above siRNA conjugate by intravitreal administration to right eyes of the mice, with an administration dose of 7.5 μg per mouse, and an administration volume of 2 μL. PBS control group was administered with the same volume of siRNA conjugate-free PBS solution. The day of administration was recorded as D0, and the mice were sacrificed at D14 after administration. Administration-side ocular retina, choroid, cornea, sclera and other tissues were respectively taken and stored in the RNAlater. RNA extraction, reverse transcription, and real-time fluorescence quantitative detection were performed on various tissues according to the above method, and gene expression differences were calculated by the above ΔΔCt method.

target gene SOD1 [3] = assay: Test Example 5: inhibitory activity of lipid conjugated siRNA sequences on SOD1 by intrathecal administration to rats; assay type: in vivo, SD rats; design: key to Lumbar segmen Mean value of inhibition rate / Cortex Mean value of inhibition rate / Thoracic segment Mean value of inhibition rate / Cervical segment Mean value of inhibition rate / Cerebellum Mean value of inhibition rate / Hippocampus Mean value of inhibition rate: inhibition rate of SOD1 mRNA, calculated by the ΔΔCt method; conditions: intrathecal, 900 μg per rat, D7; for Cortex Mean value of inhibition rate: cerebral cortex; for Cervical segment Mean value of inhibition rate: spinal cord cervical segment; for Lumbar segmen Mean value of inhibition rate: spinal cord lumbar segment; for Thoracic segment Mean value of inhibition rate: spinal cord thoracic segment
Description: 6-8 Week-old SD rats were randomly grouped by body weight. Rats in each group were administered with siRNA by intrathecal administration, with an administration dose of 900 μg per rat. Injection was administered from rat spinal cord L5-L6, with an administration volume of 40 μL. Needle was retained for 2 min after completion of injection, and then slowly withdrawn. PBS control group was administered with the same volume of siRNA conjugate-free PBS solution. The day of administration was recorded as 0 day (D0), and the rats were sacrificed at observation point after administration. Different segments of spinal cord and different regions of brain were respectively taken and stored in the RNAlater.
as §1, §2, §3, §4
The present example evaluated, by an evaluation method for inhibitory activity on a target gene by intrathecal administration to rats, the inhibitory activity of siRNA sequence RZ899060 with the sense strand with the NM031 conjugation at Position 4 and vector-free siRNA sequence RZ899056, and Uhd conjugated siRNA reference sequence RZ899055 on the target gene SOD1 of interest in spinal cord and brain of rats.
6-8 Week-old SD rats were randomly grouped by body weight, 5 per group, 4 groups in total. Rats in each group were dosed with the above siRNA conjugates by intrathecal administration, with an administration dose of 900 μg per rat, and an administration volume of 40 μL. PBS control group was administered with the same volume of siRNA conjugate-free PBS solution. The day of administration was recorded as 0 day (D0), and the rats were sacrificed on D7 after administration. […]

Row | Substance | Left hemisphere Mean value of inhibition rate (target gene SOD1 [1]; 150 μg per mouse) | Right hemisphere Mean value of inhibition rate (target gene SOD1 [1]; 150 μg per mouse) | Cerebellum Mean value of inhibition rate (target gene SOD1 [3]) | Cortex Mean value of inhibition rate (target gene SOD1 [3]) | Hippocampus Mean value of inhibition rate (target gene SOD1 [3]) | Cervical segment Mean value of inhibition rate (target gene SOD1 [3]) | Lumbar segmen Mean value of inhibition rate (target gene SOD1 [3]) | Thoracic segment Mean value of inhibition rate (target gene SOD1 [3]) | further results
1 | RX599002: vector-free siRNA sequence; SEQ ID NO: 17 / 24 (sense mU*mU*mUmUmAmAfUfCfCfUmCmAmCmUmCmUmAmAmA; antisense {VP}-mU*fU*mUmAmGfAmGmUfGmAmGmGmAfUeUfAmAmAmA*mU*mG) [reference compound] | 55.55 | 74.62 | – | – | – | – | – | – | –
2 | RX899121: siRNA reference sequence without vector conjugation; SEQ ID NO: 25 / 23 (sense mU*mU*mUmUmAmAfUfCfCfUmCmAmCmUmCmUmAmAmA; antisense {VP}-mU*fU*mUmAmGfAmGmUmGmAmGfGmAfUeUfAmAmAmA*mU*mG) [reference compound] | – | – | – | – | – | – | – | – | Choroid % Mean value of inhibition rate (target gene SOD1 [2]; choroid): 3.16%; Cornea and sclera % Mean value of inhibition rate (target gene SOD1 [2]; cornea and sclera): 5.35%; Kidney % Mean value of inhibition rate (target gene SOD1 [2]; kidney): 2.89%; Liver % Mean value of inhibition rate (target gene SOD1 [2]; liver): 5.35%; Retina % Mean value of inhibition rate (target gene SOD1 [2]; retina): 17.47%
3 | RZ899055: Uhd conjugated siRNA reference sequence; SEQ ID NO: 4 / 22 (sense mU*mU*mU[Uhd]mAmAfUfCfCmUmCmAmCmUmCmUmAmAmA; antisense {VP}-mU*fU*mUmAmGfAmGmUmGmAmGmGmAfUmUfAmAmAmA*mU*mG) | – | – | 68.43 | 41.47 | 48.56 | 81.31 | 87.46 | 91.10 | –
4 | RZ899056: vector-free siRNA sequence; SEQ ID NO: 1 / 22 (sense mU*mU*mUmUmAmAfUfCfCmUmCmAmCmUmCmUmAmAmA; antisense {VP}-mU*fU*mUmAmGfAmGmUmGmAmGmGmAfUmUfAmAmAmA*mU*mG) | – | – | 50.22 | 33.88 | 41.25 | 70.86 | 87.58 | 89.69 | –
5 | RZ899077: siRNA sequence with the sense strand with the NM201 (C22) conjugation at Position 4; SEQ ID NO: 19 / 24 (sense UUUNAAUCCUCACUCUAAA; antisense UUUAGAGUGAGGAUUAAAAUG; NM201 (C22) conjugate at sense position 4; modified_base 1..2 OTHER; 2'-methoxy and 5'-thiophosphate modified nucleotides; modified_base 3 OTHER; 2'-methoxy modified nucleotide; modified_base 4 OTHER; n is the synthetic nucleotide analog NM201 as described in the disclosure.; modified_base 5..6 OTHER; 2'-methoxy modified nucleotides; modified_base 7..10 OTHER; 2'-fluoro modified nucleotides; modified_base 11..19 OTHER; 2'-methoxy modified ; modified_base 1 OTHER; 2'-methoxy and 5'-thiovinylphosphonate modified nucleotide; modified_base 2 OTHER; 2'-fluoro and 5'-thiophosphate modified …) | 32.81 | 43.33 | – | – | – | – | – | – | –
6 | RZ899092: siRNA sequence with the sense strand with the NM031 (C16) conjugation at Position 4; SEQ ID NO: 14 / 23 (sense mU*mU*mU[NM031]mAmAfUfCfCfUmCmAmCmUmCmUmAmAmA; antisense {VP}-mU*fU*mUmAmGfAmGmUmGmAmGfGmAfUeUfAmAmAmA*mU*mG) | 60.45 | 79.45 | – | – | – | – | – | – | inhibitory activity compared with the vector-free siRNA sequence RX599002 (target gene SOD1 [1]; left and right hemisphere, lateral ventricle 150 μg per mouse): superior inhibitory activity; activity compared with Uhd conjugated reference sequence RZ899093 and NM200 (C22) conjugated reference sequence RZ899076 (target gene SOD1 [1]; right hemisphere (administration side) and left hemisphere (non-administration side), 150 μg per mouse): substantially comparable activity in the right hemisphere
